From patent publication US9918999B2, “Method for preparing a medical solution for the manufacture of a medicament for peritoneal dialysis” (FRESENIUS MEDICAL CARE DEUTSCHLAND GMBH, priority 2002, dated 2018)

What was measured:
peritoneum = conditions: rats, chronic peritoneal dialysis; cited from earlier work
cultured cells = test: in vitro inhibition of cell growth (ICG) in cultured cells; type: cell-based
From the text: Experiments in which measurements of the percentage of inhibition of cell growth (ICG) and fluorescence have been made at varying pH values and NAG concentrations during terminal heat sterilisation are illustrated in FIGS. 1-3. The results of the experiments imply that the pH of the amino sugar containing solution should be decreased from the neutral level and that, in a preferred embodiment of the invention, also the concentration of the amino sugar/sugars should be optimised.
(§1) A simple, reliable and known way to study the cytotoxicity of substances or of medical fluids is to test proliferation as in vitro inhibition of cell growth (ICG) in cultured cells. Another method to get a rough estimation of the amount of amino sugars that is rearranged is measurement of the fluorescence.

[1] = degradation during heat sterilisation (pH change, HPLC of 3-DG and 3,4-DGE); type: physicochemical
From the text: NAG and other amino sugars have a major difference from glucose and glucose-like compounds by having one amino group and possibly an acetyl group coupled to the glucose ring. […] It should be noted that the decomposition pattern for an amino sugar solution during heat sterilisation follows specific Maillard reactions giving several different toxic decomposition products. The decomposition pattern differs for e.g. a glucose solution during heat sterilisation, wherein different decomposition products are formed. This difference is illustrated in FIGS. 4a-4d, showing chromatograms when analysing 3-DG and 3,4-DGE in a NAG solution and in a glucose solution, respectively. The difference in degradation is likely due to that the NAG molecules contains groups that allows the Maillard reaction to take place and therefore create a large number of degradation products not seen in a glucose solution.

[2] = tested on: human peritoneal mesothelial cells and fibroblasts; conditions: cited from earlier work
[3] = fluorescence of heat sterilised NAG containing solutions; type: physicochemical; conditions: terminally heat sterilised solution, excitation 350 nm, emission 430 nm, FIG. 3
From the text: as §1

Molecule	effect on the peritoneum of a supplemented dialysis solution (peritoneum)	percentage inhibition of cell growth, effect of NAG concentration (cultured cells; NAG 30% vs 1.5% during terminal heat sterilisation, all three pH values, FIG. 2)	cytotoxicity after heat sterilisation (cultured cells; conventional medical solutions)	pH of sterilisation at which inhibition of cell growth reaches a minimum (cultured cells; solution containing 1.5% NAG, FIG. 1)	percentage inhibition of cell growth, effect of pH (cultured cells; terminal heat sterilisation at pH 3.0, 5.5 and 7.2, FIG. 2)	change of pH of the solution during sterilisation [1]	known glucose degradation products in heat sterilised solution ([1]; heat sterilised NAG solutions)	production of hyaluronan and sulphated glycosaminoglycans [2]	pH at which the lowest fluorescence is seen [3]
hyaluronan [reference compound]	function of the peritoneum as a dialysis membrane is better preserved								
CC(=O)N[C@H]1C(O)O[C@H](CO)[C@@H](O)[C@@H]1O (stereo partly shown) [NAG, N-acetylglucosamine]	causes accumulation of glucosaminoglycans in the peritoneal interstitium, resulting in a favorable change of the peritoneal permeability	lower after a terminal heat sterilisation at a NAG concentration of 30% than at a NAG concentration of 1.5%	increased cytotoxicity after heat sterilisation	2.5-3.5	lower after terminal heat sterilisation at a pH of 3.0 than at a pH of 5.5 and 7.2	increases during sterilisation	none of the known glucose degradation products has been found	rapidly stimulates the production of hyaluronan and sulphated glycosaminoglycans	~4
